Assay results: patent US7956041B2, “Prophylactic and therapeutic agent of diabetes mellitus” (Ajinomoto Co., Inc., priority 2002, dated 2011)

Key:
Male Wistar rats = test: Test Example 2A: excretion action of urine sugar in rat; format: in vivo; conditions: urine collected 24 hours
Experimental: Male Wistar rats aged 5 weeks (purchased from Charles River Japan, Inc.) were acclimatized in metabolic cages for one week, for use at this experiment. The test compounds suspended in olive oil were dosed at 5 ml per 1 kg rat body weight.
After the rats were starved for 4 hours, the test compounds were orally given to the rats at 11 am. Immediately after dosing until 24 hours later, urine was collected. The volume of urine was measured. Then, urine sugar concentration was assayed by glucose oxidase method, to calculate the glucose excretion into urine per individual per day.

[1] = system: glucose-loaded rats (Wistar rats); test: Example I: blood glucose time course after oral glucose loading in rats; format: in vivo, rat; conditions: glucose 1 g/kg p.o., FIG. 2
Experimental: Wistar rats (age of 7 weeks; male) were divided into groups with matched body weights. After 17-hour starvation, glucose was orally given at 1 g/kg to the animals. Immediately after the administration, the inhibitor A of renal glucose reabsorption or the inhibitor B of renal glucose reabsorption (A at 30 mg/kg or 60 mg/kg; B at 30 mg/kg or 80 mg/kg) or glibenclamide (1 mg/kg or 2 mg/kg) or nateglinide (50 mg/kg or 80 mg/kg) was orally given. Additionally, a group on the combined use of both of an inhibitor of renal glucose reabsorption and a hypoglycemic agent was also prepared. A vehicle was orally given to a control group after glucose administration.
Blood glucose was measured in a time course.

[2] = nateglinide 50 mg/kg and/or inhibitor B 30 mg/kg p.o., vs vehicle

Compound | Excreted urine sugar (Male Wistar rats; Dose 100 mg/kg p.o.) | also measured
CCc1ccc(Cc2c(O[C@@H]3O[C@H](COC(=O)OC)[C@@H](O)[C@H](O)[C@H]3O)nn(Cc3ccccc3)c2C(F)(F)F)cc1 [Production Example 4-A, 4′-[(4′-ethylphenyl)methyl]-1′-benzyl-5′-trifluoromethyl-1H-pyrazole-3′-o-(6-carbomethoxy)-β-D-glucopyranoside] | 27 mg | 
CCc1ccc(Cc2c(O[C@@H]3O[C@H](COC(=O)OC)[C@@H](O)[C@H](O)[C@H]3O)nn(Cc3ccc(OC)cc3)c2C(F)(F)F)cc1 [Production Example 6-A, 4′-[(4′-ethylphenyl)methyl]-1′-[(4′-methoxyphenyl)methyl]-5′-trifluoromethyl-1H-pyrazole-3′-o-(6-carbomethoxy)-β-D-glucopyranoside] | 59 mg | 
CCc1ccc(Cc2c(O[C@@H]3O[C@H](COC(=O)OC)[C@@H](O)[C@H](O)[C@H]3O)nn(-c3ccccc3)c2C(F)(F)F)cc1 [Production Example 8-A, 4′-[(4′-ethylphenyl)methyl]-1′-phenyl-5′-trifluoromethyl-1H-pyrazole-3′-o-(6-carbomethoxy)-β-D-glucopyranoside] | 4.1 mg | 
COC(=O)OC[C@H]1O[C@@H](Oc2nn(C(C)C)c(C)c2Cc2ccc(OC)c(F)c2)[C@H](O)[C@@H](O)[C@@H]1O [Production Example 10-A, 4′-[(3′-fluoro-4′-methoxyphenyl)methyl]-1′-isopropyl-5′-methyl-1H-pyrazole-3′-o-(6-carbomethoxy)-β-D-glucopyranoside] | 734 mg | 
COC(=O)OC[C@H]1O[C@@H](Oc2nn(C(C)C)c(C)c2Cc2ccc(C)c(F)c2)[C@H](O)[C@@H](O)[C@@H]1O [Production Example 14-A, 4′-[(3′-fluoro-4′-methylphenyl)methyl]-1′-isopropyl-5′-methyl-1H-pyrazole-3′-o-(6-carbomethoxy)-β-D-glucopyranoside] | 918 mg | 
CCc1ccc(Cc2c(O[C@@H]3O[C@H](COC(=O)OC)[C@@H](O)[C@H](O)[C@H]3O)nn(C(C)C)c2C)cc1 [Production Example 16-A, 4′-[(4-ethylphenyl)methyl]-1′-isopropyl-5′-methyl-1H-pyrazole-3′-o-(6-carbomethoxy)-β-D-glucopyranoside] | 598 mg | Excreted urine sugar (Male Wistar rats; Dose 3 mg/kg p.o.): 28 mg; Excreted urine sugar (Male Wistar rats; Dose 10 mg/kg p.o.): 263 mg; Excreted urine sugar (Male Wistar rats; Dose 30 mg/kg p.o.): 294 mg
Cc1[nH]nc(O[C@@H]2O[C@H](CO)[C@@H](O)[C@H](O)[C@H]2O)c1Cc1ccc(OC(C)C)cc1 [Reference Production Example 1, 4-[(4-isopropoxyphenyl)methyl]-5-methyl-1H-pyrazole-3-o-β-D-glucopyranoside, reference compound] | 14 mg | 
CC(C)[C@H]1CC[C@H](C(=O)N[C@H](Cc2ccccc2)C(=O)O)CC1 [nateglinide] |  | Blood glucose 30 minutes after glucose loading [1, 2]: more highly suppressed hyperglycemia immediately after glucose loading (30 minutes and 60 minutes); Blood glucose 60 minutes after glucose loading [1, 2]: more highly suppressed hyperglycemia immediately after glucose loading (30 minutes and 60 minutes); Blood glucose 120 minutes after glucose loading and thereafter ([1]; nateglinide 50 mg/kg p.o., vs vehicle): did not lower the blood glucose level 120 minutes after glucose loading and thereafter; Pattern of glycemic suppression at increased dose ([1]; nateglinide 80 mg/kg, inhibitor B 80 mg/kg): the pattern of glycemic suppression did not change even by the elevation of the dose
